The text below walks through data of patent US8148392B2, “2-indolyl imidazo [4,5-d] phenanthroline derivatives and their use in the treatment of cancer” (Lorus Therapeutics Inc., priority 2005, dated 2012).

Each structure is given as a SMILES string. Where two headings read alike, the source gives them in different places.

The test system of the test is human colon carcinoma HT-29 cells. The experiment in a line: XTT cell proliferation assay, HT-29. The note with it: HT-29, XTT. It counts as cell-based. On the procedure:
The ability of compounds of Formula I to inhibit the proliferation of human colon carcinoma HT-29 cells was tested as follows. HT-29 colon carcinoma cells used in this example and subsequent examples were maintained as a monolayer in a growth medium; McCoy's 5A modified medium (Sigma, St. Louis, Mo.), supplemented with 2 mM L-glutamine (Gibco, Grand Island, N.Y.), 10% fetal bovine serum (FBS) (Multicell, WISENT Inc. St-Bruno, QC), antibiotic-antimycotic (Multicell), at 37° C. in a 5% CO2-humidified incubator. Cells were transferred onto 150 mm tissue culture plates and grown until sub-confluency (70-80%) prior to their use. The in vitro antiproliferative activity of compounds was evaluated by incubating the cells with varying concentrations of the compounds as shown in Table 1 for 6-7 days. The efficacy of these compounds in this cell proliferation assay was measured based in the ability of live cells to reduce the tetrazolium salt XTT to orange colored compounds of formazan (XTT cell proliferation kit II, Roche Applied Science, Montreal, QC).
The ability of compounds of Formula I to inhibit the proliferation of human colon carcinoma HT-29 cells was tested as described above in Example 13.
Cell growth inhibition IC50 (μM) by compounds of Formula I was tested on various cancer cell types by XTT cell proliferation assay. The growth inhibitory effects of the compounds of Formula I as shown below for the melanoma cell line SK-MEL-2 were reproducible by Lorus Therapeutics Inc.
In general terms: Tetrazolium assays rely on reduction of a dye to a coloured formazan, in cell work by metabolically active cells.

The mark [1] stands for this setting: Homo sapiens, 6-7 days, Table 3, read-out: IC50.
Where [2] appears, read: Homo sapiens, as Example 13, Table 7, read-out: IC50.

For orientation: IC50 means the midpoint of a concentration-inhibition curve. On to `Cc1c(-c2nc3c4cccnc4c4ncccc4c3[nH]2)c2ccccc2n1CC(=O)N1CCCCCC1` [Compound 56], for which the IC50 (as Example 13, Table 7) came to 5 µg/mL.

On to `CC(C)c1[nH]c2ccc(F)cc2c1-c1nc2c3cccnc3c3ncccc3c2[nH]1` [Compound 82], for which, under “as Example 13, Table 7”, the 50% inhibitory concentration (IC50) amounted to 0.61 µg/mL.

`CC(C)(C)c1[nH]c2ccc(F)cc2c1-c1nc2c3cccnc3c3ncccc3c2[nH]1` [Compound 65] yielded a concentration for half-maximal inhibition (IC50) (as Example 13, Table 7) of 0.35 µg/mL. On the same count and under the same terms, next, `CC(C)(C)c1[nH]c2c(F)cccc2c1-c1nc2c3cccnc3c3ncccc3c2[nH]1` [Compound 88]: 0.38 µg/mL; `Cn1c(N2CCOCC2)c(-c2nc3c4cccnc4c4ncccc4c3[nH]2)c2ccccc21` [Compound 59]: 0.6 µg/mL; `O=C(Cn1cc(-c2nc3c4cccnc4c4ncccc4c3[nH]2)c2ccccc21)N1CCCC1` [Compound 46]: >5-25< μg/ml. Regarding `Fc1ccc(-c2[nH]c3ccccc3c2-c2nc3c4cccnc4c4ncccc4c3[nH]2)cc1` [Compound 10], the 50% inhibitory concentration (IC50) is, setting by setting: under setting [1], 180 nM; under setting [2], 0.18 µg/mL. In turn, `Cc1c(-c2nc3c4cccnc4c4ncccc4c3[nH]2)c2ccccc2n1CC(=O)N1CCCCC1` [Compound 57] registered a concentration for half-maximal inhibition (IC50) (as Example 13, Table 7) of 5 µg/mL. On the same count and under the same terms, as for `O=C(Cn1cc(-c2nc3c4cccnc4c4ncccc4c3[nH]2)c2ccccc21)N1CCOCC1` [Compound 44], the figure is >5-25<, μg/ml. Same read-out and setting: next, `Cc1c(-c2nc3c4cccnc4c4ncccc4c3[nH]2)c2ccccc2n1CC(=O)N1CCC(C)CC1` [Compound 55]: 2.4 µg/mL; `CC(C)(C)c1[nH]c2ccc(Br)cc2c1-c1nc2c3cccnc3c3ncccc3c2[nH]1` [Compound 87]: 0.42 µg/mL. `Cc1[nH]c2ccc(O)cc2c1-c1nc2c3cccnc3c3ncccc3c2[nH]1` [Compound 8]: the IC50 under setting [2] is over 25 µg/mL. Where the note is “as Example 13, Table 7”, `Clc1ccc(-c2[nH]c3ccccc3c2-c2nc3c4cccnc4c4ncccc4c3[nH]2)cc1` [Compound 42] displayed an IC50 of 0.31 µg/mL. With `CC(C)c1[nH]c2ccccc2c1-c1nc2c3cccnc3c3ncccc3c2[nH]1` [Compound 79], the IC50 (as Example 13, Table 7) stood at 0.65 µg/mL. Turning to `c1ccc2c(-c3nc4c5cccnc5c5ncccc5c4[nH]3)c(C3CCCCC3)[nH]c2c1` [Compound 80], the IC50 (as Example 13, Table 7) came out at 0.42 µg/mL. The same measure, in the same setting: as for `O=C(Cn1cc(-c2nc3c4cccnc4c4ncccc4c3[nH]2)c2ccccc21)N1CCCCCC1` [Compound 45], the figure is 7 µg/mL; as for `CC(C)(C)c1[nH]c2ccc(-c3ccccc3)cc2c1-c1nc2c3cccnc3c3ncccc3c2[nH]1` [Compound 68], 0.34 µg/mL. On the same count and under the same terms, as for `Cc1cc(Cl)cc2c(-c3nc4c5cccnc5c5ncccc5c4[nH]3)c(C(C)(C)C)[nH]c12` [Compound 84], the figure is 0.39 µg/mL; as for `c1ccc2c(-c3nc4c5cccnc5c5ncccc5c4[nH]3)c(C3CCCC3)[nH]c2c1` [Compound 81], 0.4 µg/mL.

For the compound `CN1CCN(C(=O)Cn2cc(-c3nc4c5cccnc5c5ncccc5c4[nH]3)c3ccccc32)CC1` [Compound 58], for the setting “as Example 13, Table 7”, the half-maximal inhibitory concentration (IC50) result is recorded as “>”. The same measure, in the same setting: as for `Cc1c(-c2nc3c4cccnc4c4ncccc4c3[nH]2)c2cc(F)ccc2n1Cc1ccccc1` [Compound 77], the figure is 0.24 µg/mL; as for `CC(C)n1cc(-c2nc3c4cccnc4c4ncccc4c3[nH]2)c2ccccc21` [Compound 52], 0.19 µg/mL. For the setting “as Example 13, Table 7”, `CC1CCN(C(=O)Cn2cc(-c3nc4c5cccnc5c5ncccc5c4[nH]3)c3ccccc32)CC1` [Compound 51] registered an IC50 of 5 µg/mL. Compound `Cc1ccc(C)c2c(-c3nc4c5cccnc5c5ncccc5c4[nH]3)c(C34CC5CC(CC(C5)C3)C4)[nH]c12` [Compound 70] gave an IC50 (as Example 13, Table 7) of 0.35 µg/mL.

For the compound `CC(C)c1ccc2[nH]c(C(C)(C)C)c(-c3nc4c5cccnc5c5ncccc5c4[nH]3)c2c1` [Compound 61], the IC50 (as Example 13, Table 7) was determined as 0.4 µg/mL.

In the case of `CC(C)(C)c1ccc2[nH]c(C3CCCC3)c(-c3nc4c5cccnc5c5ncccc5c4[nH]3)c2c1` [Compound 73], the IC50 (as Example 13, Table 7) stood at 0.22 µg/mL. The same measure, in the same setting: as for `O=C(Cn1cc(-c2nc3c4cccnc4c4ncccc4c3[nH]2)c2cc(Br)ccc21)N1CCCC1` [Compound 49], the figure is >5-25< μg/ml; as for `O=C(Cn1cc(-c2nc3c4cccnc4c4ncccc4c3[nH]2)c2ccccc21)N1CCCCC1` [Compound 47], 5 µg/mL. Regarding `COc1ccc2c(c1)c(-c1nc3c4cccnc4c4ncccc4c3[nH]1)cn2C(C)C` [Compound 54], the IC50 (as Example 13, Table 7) was determined as 0.28 µg/mL. As to `Fc1ccc2[nH]c(C34CC5CC(CC(C5)C3)C4)c(-c3nc4c5cccnc5c5ncccc5c4[nH]3)c2c1` [Compound 72], the 50% inhibitory concentration (IC50) (as Example 13, Table 7) is 0.18 µg/mL. For the setting “as Example 13, Table 7”, `c1ccc2c(c1)c(-c1nc3c4cccnc4c4ncccc4c3[nH]1)cn2C1CCCC1` [Compound 53] gave a concentration for half-maximal inhibition (IC50) of 0.19 µg/mL. On the same count and under the same terms, as for `CC1CCCC(C)N1C(=O)Cn1cc(-c2nc3c4cccnc4c4ncccc4c3[nH]2)c2ccccc21` (stereo not drawn) [Compound 50], the figure is 2.3 µg/mL. The same measure, in the same setting: next, `c1ccc2c(-c3nc4c5cccnc5c5ncccc5c4[nH]3)c[nH]c2c1` [Compound 1]: 2 µg/mL; `Cc1c(-c2nc3c4cccnc4c4ncccc4c3[nH]2)c2ccccc2n1CC(=O)N1CCCC1` [Compound 43]: >5-25< μg/ml; `Cn1c(-c2ccccc2)c(-c2nc3c4cccnc4c4ncccc4c3[nH]2)c2ccccc21` [Compound 18]: 0.37 µg/mL. `Cc1ccccc1-c1[nH]c2ccc(C(C)(C)C)cc2c1-c1nc2c3cccnc3c3ncccc3c2[nH]1` [Compound 74]: the half-inhibitory concentration (IC50) (as Example 13, Table 7) was found to be 0.18 µg/mL.

Compound `Cc1cccc2c(-c3nc4c5cccnc5c5ncccc5c4[nH]3)c(C(C)(C)C)[nH]c12` [Compound 62] had an IC50 (as Example 13, Table 7) of under 0.1 µg/mL. Where the note is “as Example 13, Table 7”, `c1ccc2c(-c3nc4c5cccnc5c5ncccc5c4[nH]3)c(C34CC5CC(CC(C5)C3)C4)[nH]c2c1` [Compound 78] had a concentration for half-maximal inhibition (IC50) of 0.38 µg/mL.

For the setting “as Example 13, Table 7”, `Cc1ccc(Cl)c2c(-c3nc4c5cccnc5c5ncccc5c4[nH]3)c(C(C)(C)C)[nH]c12` [Compound 85] had an IC50 of 0.24 µg/mL. As to `CCc1ccc2[nH]c(C(C)(C)C)c(-c3nc4c5cccnc5c5ncccc5c4[nH]3)c2c1` [Compound 86], the concentration for half-maximal inhibition (IC50) (as Example 13, Table 7) came out at 0.47 µg/mL. `Fc1ccc2[nH]cc(-c3nc4c5cccnc5c5ncccc5c4[nH]3)c2c1` [Compound 4]: the IC50 under setting [2] came to 3.5 µg/mL. As to `CN(C)S(=O)(=O)c1ccc2[nH]c(Cl)c(-c3nc4c5cccnc5c5ncccc5c4[nH]3)c2c1` [Compound 76], the 50% inhibitory concentration (IC50) (as Example 13, Table 7) is over 25 µg/mL. Still for that read-out and setting: next, `Cc1[nH]c2ccc([N+](=O)[O-])cc2c1-c1nc2c3cccnc3c3ncccc3c2[nH]1` [Compound 38]: 3.5 µg/mL; `O=S(=O)(c1ccc2[nH]c(Cl)c(-c3nc4c5cccnc5c5ncccc5c4[nH]3)c2c1)N1CCOCC1` [Compound 75]: over 25 µg/mL.

As to `COc1ccc2[nH]c(C)c(-c3nc4c5cccnc5c5ncccc5c4[nH]3)c2c1` [Compound 6], the IC50 runs as follows: under setting [1], 1400 nM; under setting [2], 1.4 µg/mL. `CC(C)(C)c1[nH]c2c(F)cc(F)cc2c1-c1nc2c3cccnc3c3ncccc3c2[nH]1` [Compound 66] showed a half-inhibitory concentration (IC50) (as Example 13, Table 7) of 0.4 µg/mL.

Consider `Cc1ccc(F)c2c(-c3nc4c5cccnc5c5ncccc5c4[nH]3)c(C(C)(C)C)[nH]c12` [Compound 83], for which, under “as Example 13, Table 7”, the IC50 stood at 0.1 µg/mL. Under “as Example 13, Table 7”, `CC(C)(C)c1[nH]c2ccccc2c1-c1nc2c3cccnc3c3ncccc3c2[nH]1` [Compound 39] had an IC50 of 0.45 µg/mL. In the case of `CC(C)(C)c1[nH]c2ccc(C#N)cc2c1-c1nc2c3cccnc3c3ncccc3c2[nH]1` [Compound 71], the IC50 (as Example 13, Table 7) worked out at 3 µg/mL.
